Laboratory results as given in patent publication US12336536B2, “Method for controlling herbicide resistant or tolerant weeds” (BASF Agro B.V., priority 2015, dated 2025).

How the values were obtained:
[1] = system: GALAP; assay: Greenhouse test, solo and combination, post-emergence, 20 DAT; assay type: in vivo, Galium aparine
Protocol: (§1) The test plants have been seeded, separately for each species, in plastic containers in sandy loamy soil containing 5% of organic matter.
(§2) For the post-emergence treatment, the plants were first grown to the 2 leaf station (GS 12) and applied at GS 12-19 depending on the species. The herbicidal compositions were suspended or emulsified in water as distribution medium and sprayed using finely distributing nozzles.
(§3) The plants have been cultivated due to their individual requirements at 10-25° C. and 20-35° C. The plants were irrigated due to their necessity.
(§4) The racemic mixture (±)-2-exo-(2-Methylbenzyloxy)-1-methyl-4-isopropyl-7-oxabicyclo[2.2.1]heptane was used as herbicide A and formulated as emulsifiable concentrate having an active ingredient concentration of 750 g/l.
(§5) Cyhalofop-butyl (herbicide B.5) was used as an emulsifiable concentrate (EC) formulation having an active ingredient concentration of 200 g/l.
(§6) Metsulfuron-methyl (herbicide B.53) was used as a water soluble granule (SG) formulation having an active ingredient concentration of 20%.
(§7) Bispyribac-sodium (herbicide B.23) was used as a soluble concentrate (SL) formulation having an active ingredient concentration of 408 g/l.
(§8) Quizalofop-P-ethyl (herbicide B.217) was used as a suspension concentrate (SC) formulation having an active ingredient concentration of 106 g/l.
(§9) In the following experiments, the herbicidal activity for the individual herbicide compounds (solo and mixture applications) was assessed 20 days after treatment (DAT).
(§10) The evaluation for the damage on undesired weeds caused by the chemical compositions was carried out using a scale from 0 to 100%, compared to the untreated control plants. Here, 0 means no damage and 100 means complete destruction of the plants.
(§11) The plants used in the greenhouse experiments belonged to the following species:
(§12) E=X+Y−(X·Y/100) • where X=effect in percent using herbicide A at an application rate a; • Y=effect in percent using herbicide B at application rate b; • E=expected effect (in %) of herbicide A+herbicide B at application rates a+b.
(§13) The value E corresponds to the effect (plant damage or injury) which is to be expected if the activity of the individual compounds is additive. If the observed effect is higher than the value E calculated according to the Colby equation, a synergistic effect is present.
(§14) Tables 3 to 6 below relate the herbicidal activity, in greenhouse trials, of the individual actives and the combination applied at different rates and ratios, in post-emergence application at 20 days after treatment (DAT).

[2] = system: PAPRH; assay: as above; assay type: in vivo, Papaver rhoeas
Protocol: as §1, §2, §3, §4, §5, §6, §7, §8, §9, §10, §11, §12, §13, §14

[3] = system: BROST; assay: as above; assay type: in vivo, Bromus sterilis
Protocol: as §1, §2, §3, §4, §5, §6, §7, §8, §9, §10, §11, §12, §13, §14

[4] = system: BRSNW; assay: as above; assay type: in vivo, Brassica napus
Protocol: as §1, §2, §3, §4, §5, §6, §7, §8, §9, §10, §11, §12, §13, §14

[5] = system: blackgrass (ALOMY) biotypes; assay: Greenhouse test, control of resistant weed biotypes, post-emergence, blackgrass; assay type: in vivo, Alopecurus myosuroides; details: for Herbicidal activity: post-emergence, scale 0 to 100
Protocol: The herbicidal activity of herbicide A on resistant weed biotypes was tested in comparison with certain commercial herbicides by the following greenhouse experiments:
The culture containers used were plastic flowerpots containing loamy sand with approximately 3.0% of humus as the substrate. The seeds of the test plants were sown separately for each species. Six blackgrass (ALOMY) (10-103, 10-170, 09-591, 10-123, 11-215, 11-146) and six ryeg rass (LOLMU) (12-166, 12-143, 12-165, 12-307, 13-304, 13-313) biotypes with varying degrees of resistance towards a range of modes of action according to the HRAC (Herbicide Resistance Action Committee) classification on mode of action 2010 (see e.g http://www.hracglobal.com/pages/classificationofherbicidesiteofaction.aspx) were tested alongside two non-resistant biotypes (14-116 and 13-243), see Tables 1 and 2 below.
For the post-emergence treatment, the test plants were first grown to a height of 3 to 15 cm, depending on the plant habit, and only then treated with the active ingredients which had been suspended or emulsified in water. For this purpose, the test plants were either sown directly and grown in the same containers, or they were first grown separately as seedlings and transplanted into the test containers a few days prior to treatment.
Depending on the species, the plants were kept at 10-25° C. or 20-35° C. The test period extended over 2 to 4 weeks. During this time, the plants were tended, and their response to the individual treatments was evaluated.
The racemic mixture (±)-2-exo-(2-Methylbenzyloxy)-1-methyl-4-isopropyl-7-oxabicyclo[2.2.1]heptane was used as herbicide A and formulated as emulsifiable concentrates with an active ingredient concentration of 50 g/l, 100 g/l or 750 g/l respectively.
Flufenacet was used as a commercial concentrated solution formulation having an active ingredient concentration of 500 g/l (Cadou).
Imazamox was used as a water dispersible granule (70% WG).
Evaluation of the herbicidal activity was carried out using a scale from 0 to 100. 100 means complete destruction of at least the aerial moieties, and 0 means no damage, or normal course of growth. A good herbicidal activity is given at values of at least 70 and a very good herbicidal activity is given at values of at least 85.

[6] = system: ALOMY; assay: Greenhouse test, solo and combination, post-emergence, 20 DAT; assay type: in vivo, Alopecurus myosuroides
Protocol: as §1, §2, §3, §4, §5, §6, §7, §8, §9, §10, §11, §12, §13, §14

[7] = system: LOLRI; assay: as above; assay type: in vivo, Lolium rigidum
Protocol: as §1, §2, §3, §4, §5, §6, §7, §8, §9, §10, §11, §12, §13, §14

Substance “(±)-2-exo-(2-Methylbenzyloxy)-1-methyl-4-isopropyl-7-oxabicyclo[2.2.1]heptane [Herbicide A]” has a Herbicidal activity ([1]; solo application 62.5 g ai/ha) of 25%, a Herbicidal activity ([1]; solo application 125 g ai/ha) of 35% and a Herbicidal activity ([1]; solo application 250 g ai/ha) of 35%. The Herbicidal activity ([1]; solo application 500 g ai/ha) was 45%, the Herbicidal activity ([2]; solo application 62.5 g ai/ha) was 0% and the Herbicidal activity ([2]; solo application 250 g ai/ha) was 40%. It also gave a Herbicidal activity ([2]; solo application 500 g ai/ha) of 60%, a Herbicidal activity ([3]; solo application 62.5 g ai/ha) of 0% and a Herbicidal activity ([3]; solo application 125 g ai/ha) of 0%. It also gave a Herbicidal activity ([3]; solo application 250 g ai/ha) of 15%, a Herbicidal activity ([3]; solo application 500 g ai/ha) of 25% and a Herbicidal activity ([4]; solo application 62.5 g ai/ha) of 0%. It also gave a Herbicidal activity ([4]; solo application 125 g ai/ha) of 0%, a Herbicidal activity ([4]; solo application 500 g ai/ha) of 0% and a Herbicidal activity ([5]; BT 09-591, resistant HRAC group A, B, K, 125 g ai/ha) of 80. It also gave a Herbicidal activity ([5]; BT 09-591, resistant HRAC group A, B, K, 250 g ai/ha) of 95, a Herbicidal activity ([5]; BT 10-103, resistant HRAC group A, B, K, 125 g ai/ha) of 80 and a Herbicidal activity ([5]; BT 10-103, resistant HRAC group A, B, K, 250 g ai/ha) of 95. It also gave a Herbicidal activity ([5]; BT 10-123, resistant HRAC group A, B, C, 125 g ai/ha) of 85, a Herbicidal activity ([5]; BT 10-123, resistant HRAC group A, B, C, 250 g ai/ha) of 90 and a Herbicidal activity ([5]; BT 10-170, resistant HRAC group A, B, K, 125 g ai/ha) of 85. For the same substance, the Herbicidal activity ([5]; BT 10-170, resistant HRAC group A, B, K, 250 g ai/ha) was 90, the Herbicidal activity ([5]; BT 11-146, resistant HRAC group K, 125 g ai/ha) was 90 and the Herbicidal activity ([5]; BT 11-146, resistant HRAC group K, 250 g ai/ha) was 95. For the same substance, the Herbicidal activity ([5]; BT 11-215, resistant HRAC group A, B, C, E, K, 125 g ai/ha) was 80, the Herbicidal activity ([5]; BT 11-215, resistant HRAC group A, B, C, E, K, 250 g ai/ha) was 95 and the Herbicidal activity ([5]; BT 14-116, Sensitive standard, 125 g ai/ha) was 65. For the same substance, the Herbicidal activity ([5]; BT 14-116, Sensitive standard, 250 g ai/ha) was 100, the “herbicidal activity (summary in words)” value ([5]; post-emergence treatment, various biotypes of blackgrass (ALOMY) with varying degrees of resistance) was “very good herbicidal activity (a very good herbicidal activity is given at values of at least 85)” and the Herbicidal activity ([6]; solo application 62.5 g ai/ha) was 30%. The Herbicidal activity ([6]; solo application 125 g ai/ha) was 55%, the Herbicidal activity ([6]; solo application 250 g ai/ha) was 70% and the Herbicidal activity ([6]; solo application 500 g ai/ha) was 80%. It also gave a Herbicidal activity ([7]; solo application 62.5 g ai/ha) of 15%, a Herbicidal activity ([7]; solo application 125 g ai/ha) of 30% and a Herbicidal activity ([7]; solo application 250 g ai/ha) of 50%.
